Patent EP0464022B1, “INSULINOTROPIC HORMONE” (THE GENERAL HOSPITAL CORPORATION, priority 1989, dated 2000)

Assays:
[1] = test system: rat pancreas; assay: Pancreatic perfusion assay of insulinotropic activity (isolated perfused rat pancreas, insulin radioimmunoassay); assay type: in vivo
From the text: The insulinotropic property of a compound may be determined by providing that compound to animal cells, or injecting that compound into animals and monitoring the release of immunoreactive insulin (IRI) into the media or circulatory system of the animal, respectively. The presence of IRI is detected through the use of a radioimmunoassay which can specifically detect insulin. Although any radioimmunoassay capable of detecting the presence of IRI may be employed, It is preferable to use a modification of the assay method of Albano, J.D.M., et al., (Acta Endocrinol. 70:487-509 (1972)). In this modification, a phosphate/albumin buffer with a pH of 7.4 was employed. The incubation was prepared with the consecutive condition of 500 µl of phosphate buffer, 50 µl of perfusate sample or rat insulin standard in perfusate, 100 µl of anti-insulin antiserum (Wellcome Laboratories; 1:40,000 dilution), and 100 µl of [^125I] insulin, giving a total volume of 750 µl in a 10 x 75-mm disposable glass tube. After incubation for 2-3 days at 4°C, free insulin was separated from antibody-bound insulin by charcoal separation. The assay sensitivity was 1-2 µU/ml.
The insulinotropic property of a compound may also be determined by pancreatic infusion. The in situ isolated perfused rat pancreas preparation was a modification of the method of Penhos, J.C., et al. (Diabetes 18:733-738 (1969)). In accordance with such a method, fasted rats (preferably male Charles River strain albino rats), weighing 350-600 g, are anesthetized with an intraperitoneal injection of Amytal Sodium (Eli Lilly and Co., 160 ng/kg). Renal, adrenal, gastric, and lower colonic blood vessels are ligated. The entire intestine is resected except for about four cm of duodenum and the descending colon and rectum. […] The perfusate is preferably a modified Krebs-Ringer bicarbonate buffer with 4% dextran T70 and 0.2% bovine serum albumin (fraction V), and is preferably bubbled with 95% O2 and 5% CO2. A nonpulsatile flow, four-channel roller-bearing pump (Buchler polystatic, Buchler Instruments Division, Nuclear-Chicago Corp.) is preferably used, and a switch from one perfusate source to another is preferably accomplished by switching a three-way stopcock.
Isolated rat pancreas was prepared according to the method of Weir, G.C., et al., (J. Clin. Invest. 54:1403-1412 (1974)), and Penkos, J.C., et al. (Diabetes 18:733-738 (1969)). The perfusate contained bicarbonate buffer (pH 7.4) and 120 mg/dl glucose, 4% dextran T-70, and 0.2% bovine serum albumin, and was equilibrated with 95% oxygen and 5% carbon dioxide. The first 20 minutes of each perfusion was an equilibrium period. After this initial period, aliquots of perfusate were removed every 2-4 min for additional 20 min, thus allowing the system to equilibrate for a total of 40 min. The perfusion, including any added insulinotropic peptide, was for 6 min and samples were collected at 1-min intervals. When more than one perfusion was to be performed, the peptide perfusions were followed by equilibration periods of 20 min, during which four samples 5 min apart were collected. […] Again, samples 1 min apart were collected. The entire perfusion time was between 70 and 85 mm.
In each aliquot of perfusate obtained, insulin was determined by radioimmunoassay.

[2] = test system: insulinoma cell line RIN 1046-38; assay: cAMP formation in insulinoma cell line; assay type: cell-based, rat; conditions: for effects on the formation of cAMP: 5 nM and 50 pM; for effect on cAMP levels: 0.5 µM
Experimental: Cells were incubated for 10 minutes in the presence of 0, 10^-11, 10^-9, or 10^-7M peptides.

[3] = Biological half-life
[4] = Stability in culture medium (HPLC and radioimmunoassay); assay type: in vitro ADME; conditions: 24 hr; conditioned medium containing 01% bovine serum albumin
Experimental: To assess the stability of the […] peptide in the experimental conditions, GLP-1 (1-37) was incubated for 24 hr in culture medium alone or in medium supplemented with either 0.1% bovine serum albumin or 10% fetal bovine serum. Aliquots of media were analyzed by high-pressure liquid chromatography and radioimmunoassay.

[5] = test system: RINS-38 insulinoma cells; assay: Cellular cAMP levels (Table 2); assay type: cell-based, rat; set-up: cAMP: unit not given here; conditions: for stimulation of cAMP levels: even at 10^-11M; for cAMP: 10 minutes
Experimental: Cells were grown as described in Example 1, in […] culture dishes. Varying amounts of glucagon-like peptides were added to culture wells in triplicate. After permitting incubation for 10 minutes, the total cell media was examined for cAMP, and the concentration of cAMP was determined. Twenty microliters from each culture well was assayed.

[6] = test system: Rat insulinoma cells of cell line RIN-38; assay: mRNA levels by Northern hybridization in insulinoma cells; assay type: cell-based; conditions: peptide 10^-7M; 25 mM glucose
Experimental: The cells were maintained in DMEM (Gibco) at a glucose concentration of 4,500 mg/L and supplemented with 10% heat-inactivated fetal bovine serum (Gibco), 100 U/ml of penicillin and 100 µg/ml of streptomycin. Incubations were carried out at 37°C in 95% air:5% CO2. Cells grown in the above manner were washed and resuspended in DMEM (Gibco) containing 0.1% bovine serum albumin and 25 mM glucose. […] In all cases, the concentration of peptides was 10^-7M. Incubations were for six hours.
Messenger RNAs specific for insulin, actin, or angiotensinogen were identified by Northern hybridization as follows: cellular RNA was extracted from solid tumors and cells by homogenization in guanidine thiocyanate and sedimentation through a cesium chloride cushion. Poly A^+ RNA was isolated by oligo dT cellulose chromatography (Aviv, H., et al., Proc. Natl. Acad. Sci., USA 69:1408-1412 (1972)). Twenty micrograms of total RNA from each sample were fractionated by size on a 1.4% agarose gel after denaturation in glyoxal, followed by electrotransfer to a nylon membrane (Nytran; Schleicher and Schuell). […] The relative amounts of the specific mRNA were determined by microdensitometry.

GLP-1 (1-37): GLP-1 polypeptide having all amino acids from 1 (N-terminus) through 37 (C-terminus)
increase in serum insulin concentrations ([1]; 5 x 10^-7M): 3.4 fold | Insulin Produced ([1]; 5x10^-7M, 0 minutes (before peptide added)): 1,400 picograms/ml | Insulin Produced ([1]; 5x10^-7M, 1 minute): 4,700 picograms/ml | Insulin Produced ([1]; 5x10^-7M, 2 minutes): 2,900 picograms/ml | Insulin Produced ([1]; 5x10^-7M, 3 minutes): 2,200 picograms/ml | increase in serum insulin levels ([1]; 5 x 10^-8M): two-fold | Insulin Produced ([1]; 5x10^-8M, 0 minutes (before peptide added)): 3,000 picograms/ml | Insulin Produced ([1]; 5x10^-8M, 1 minute): 6,000 picograms/ml | Insulin Produced ([1]; 5x10^-8M, 2 minutes): 2,000 picograms/ml | Insulin Produced ([1]; 5x10^-8M, 3 minutes): 2,000 picograms/ml | increase in serum insulin levels ([1]; 5 x 10^-10M): 20% | Insulin Produced ([1]; 5x10^-10M, 0 minutes (before peptide added)): 500 picograms/ml | Insulin Produced ([1]; 5x10^-10M, 1 minute): 600 picograms/ml | Insulin Produced ([1]; 5x10^-10M, 2 minutes): 640 picograms/ml | Insulin Produced ([1]; 5x10^-10M, 3 minutes): 430 picograms/ml | effect on insulin levels ([1]; 5 x 10^-11M): without effect | Insulin Produced ([1]; 5x10^-11M, 0 minutes (before peptide added)): 340 picograms/ml | Insulin Produced ([1]; 5x10^-11M, 1 minute): 180 picograms/ml | Insulin Produced ([1]; 5x10^-11M, 2 minutes): 230 picograms/ml | Insulin Produced ([1]; 5x10^-11M, 3 minutes): 340 picograms/ml | Insulin Produced ([1]; 5x10^-12M, 0 minutes (before peptide added)): 50 picograms/ml | Insulin Produced ([1]; 5x10^-12M, 1 minute): 50 picograms/ml | Insulin Produced ([1]; 5x10^-12M, 2 minutes): 160 picograms/ml | Insulin Produced ([1]; 5x10^-12M, 3 minutes): 50 picograms/ml | insulinotropic activity ([1]; 10^-11 M, five minute perfusion): inactive | insulin-releasing activity ([1]; even at concentrations as high as 5 X 10^-7M): no insulin-releasing activity | effects on the formation of cAMP [2]: negligible | effect on cAMP levels [2]: increased cAMP levels | biological half-life [3]: 30-50 minutes | stability: cleavage after incubation [4]: a small peak of GLP-1 (7-37) appeared | stimulation of cAMP levels [5]: neither GLP-1 (1-37) nor GLP-II exhibited such activity | cAMP ([5]; peptide 10^-6 M): 170 | cAMP ([5]; peptide 10^-7 M): 120 | cAMP ([5]; peptide 10^-8 M): 160 | cAMP ([5]; peptide 10^-9 M): 100 | cAMP ([5]; peptide 10^-10 M): 90 | cAMP ([5]; peptide 10^-11 M): 90

GLP-1-(1-36)-NH2: GLP-1 (1-36 des-gly-arg amide); Peninsula Laboratories
effects on the formation of cAMP [2]: negligible | effect on cAMP levels [2]: increased cAMP levels

GLP-II: glucagon-like peptide 2 (GLP-2) (HADGSFSDEMNTILDNLAARDFINWLIQTKITD; Glucagon-like peptide 2; UniProt P01275 146-178, looked up)
effect on insulin mRNA levels [6]: no effects | stimulation of cAMP levels [5]: neither GLP-1 (1-37) nor GLP-II exhibited such activity
